Results from US6114310A, “Efflux pump inhibitors” (priority 1998, dated 2000).

System: Pseudomonas aeruginosa PAM1001
Assay: microbe, parasite or virus in culture
Format: cell-based
Method: The activity of efflux pump inhibitors (EPI) in combination with fluoroquinolones, such as levofloxacin, is assessed by the checkerboard assay (Antimicrobial Combinations. In Antibiotics in Laboratory Medicine, Ed. Victor Lorian, M. D., Fourth edition, 1996, pp 333-338) using broth microdilution method performed as recommended by the NCCLS (National Committee for Clinical Laboratory Standards (NCCLS). 1997. Methods for Dilution of Antimicrobial Susceptibility Tests for Bacteria That Grow Aerobically--Fourth Edition; Approved Standard. NCCLS Document M7-A4, Vol 17 No.2). The test organism used is Pseudomonas aeruginosa PAM1001.
In this assay, multiple dilutions of two drugs, namely the EPI and levofloxacin, are being tested, alone and in combination, at concentrations equal to, above and below their respective minimal inhibitory concentrations (MICs).
Stock solutions are further diluted, according to the needs of a particular assay, in Mueller Hinton Broth (MHB). Stock solution can be stored at -80° C. Quinolones are solubilized according to the instructions of the manufacturers, at a concentration of 1 mg/ml. They are then further diluted in MHB. Stock solution can be stored at -80° C.
The checkerboard assay is performed in microtiter plates. Levofloxacin is diluted in the x axis, each column containing a single concentration of levofloxacin. The EPI is diluted in the y axis, each row containing an equal concentration of EPI. The result of these manipulations is that each well of the microtiter plate contains a unique combination of concentrations of the two agents. Each EPI are tested independently.
The assay is performed in MHB with a final bacterial inoculum of 5×10^5 CFU/ml (from an early-log phase culture). Microtiter plates are incubated during 20 h at 35° C. and are read using a microtiterplate reader (Molecular Devices) at 650 nm as well as visual observation using a microtiterplate reading mirror.

[1] = Table 1, EPI Conc. μg/ml (number not given; column between 10 and 40 μg/ml)
[2] = Table 2, EPI Conc. μg/ml (number not given; column between 10 and 40 μg/ml)
[3] = Table 3, EPI Conc. μg/ml (number not given; column between 10 and 40 μg/ml)
[4] = Table 4, EPI Conc. μg/ml (number not given; column between 10 and 40 μg/ml)

| Substance | Levofloxacin MIC Against P. aeruginosa PAM1001 in Presence of Efflux Pump Inhibitor (EPI), Minimum Inhibitory Concentration (Table 1, EPI Conc. 0 μg/ml) | Levofloxacin MIC Against P. aeruginosa PAM1001 in Presence of Efflux Pump Inhibitor (EPI), Minimum Inhibitory Concentration (Table 1, EPI Conc. 0.625 μg/ml) | Levofloxacin MIC Against P. aeruginosa PAM1001 in Presence of Efflux Pump Inhibitor (EPI), Minimum Inhibitory Concentration (Table 1, EPI Conc. 5 μg/ml) | Levofloxacin MIC Against P. aeruginosa PAM1001 in Presence of Efflux Pump Inhibitor (EPI), Minimum Inhibitory Concentration (Table 1, EPI Conc. 10 μg/ml) | Levofloxacin MIC Against P. aeruginosa PAM1001 in Presence of Efflux Pump Inhibitor (EPI), Minimum Inhibitory Concentration (Table 1, EPI Conc. 40 μg/ml) | Levofloxacin MIC Against P. aeruginosa PAM1001 in Presence of Efflux Pump Inhibitor (EPI), Minimum Inhibitory Concentration (Table 1, EPI Conc. […]) | Levofloxacin MIC Against P. aeruginosa PAM1001 in Presence of Efflux Pump Inhibitor (EPI), Minimum Inhibitory Concentration [1] | Levofloxacin MIC Against P. aeruginosa PAM1001 in Presence of Efflux Pump Inhibitor (EPI), Minimum Inhibitory Concentration (Table 2, EPI Conc. 0 μg/ml) | Levofloxacin MIC Against P. aeruginosa PAM1001 in Presence of Efflux Pump Inhibitor (EPI), Minimum Inhibitory Concentration (Table 2, EPI Conc. 0.625 μg/ml) | Levofloxacin MIC Against P. aeruginosa PAM1001 in Presence of Efflux Pump Inhibitor (EPI), Minimum Inhibitory Concentration (Table 2, EPI Conc. 5 μg/ml) | Levofloxacin MIC Against P. aeruginosa PAM1001 in Presence of Efflux Pump Inhibitor (EPI), Minimum Inhibitory Concentration (Table 2, EPI Conc. 10 μg/ml) | Levofloxacin MIC Against P. aeruginosa PAM1001 in Presence of Efflux Pump Inhibitor (EPI), Minimum Inhibitory Concentration (Table 2, EPI Conc. 40 μg/ml) | Levofloxacin MIC Against P. aeruginosa PAM1001 in Presence of Efflux Pump Inhibitor (EPI), Minimum Inhibitory Concentration [2] | Levofloxacin MIC Against P. aeruginosa PAM1001 in Presence of Efflux Pump Inhibitor (EPI), Minimum Inhibitory Concentration (Table 3, EPI Conc. 0 μg/ml) | Levofloxacin MIC Against P. aeruginosa PAM1001 in Presence of Efflux Pump Inhibitor (EPI), Minimum Inhibitory Concentration (Table 3, EPI Conc. 0.625 μg/ml) | Levofloxacin MIC Against P. aeruginosa PAM1001 in Presence of Efflux Pump Inhibitor (EPI), Minimum Inhibitory Concentration (Table 3, EPI Conc. 5 μg/ml) | Levofloxacin MIC Against P. aeruginosa PAM1001 in Presence of Efflux Pump Inhibitor (EPI), Minimum Inhibitory Concentration (Table 3, EPI Conc. 10 μg/ml) | Levofloxacin MIC Against P. aeruginosa PAM1001 in Presence of Efflux Pump Inhibitor (EPI), Minimum Inhibitory Concentration (Table 3, EPI Conc. 40 μg/ml) | Levofloxacin MIC Against P. aeruginosa PAM1001 in Presence of Efflux Pump Inhibitor (EPI), Minimum Inhibitory Concentration [3] | Levofloxacin MIC Against P. aeruginosa PAM1001 in Presence of Efflux Pump Inhibitor (EPI), Minimum Inhibitory Concentration (Table 4, EPI Conc. 0 μg/ml) | other results |
| --- | --- | --- | --- | --- | --- | --- | --- | --- | --- | --- | --- | --- | --- | --- | --- | --- | --- | --- | --- | --- | --- |
| D-Ornithyl-β-(N-phenylpropyl)alanine 2-naphthylamide [Compound 20 (Table 3)] | 4 µg/mL | 4 µg/mL | 4 µg/mL | 2 µg/mL | 0.25 µg/mL | 4 µg/mL | 1 µg/mL | 4 µg/mL | 4 µg/mL | 2 µg/mL | 1 µg/mL | 0.03 µg/mL | 0.50 µg/mL | 4 µg/mL | 4 µg/mL | 2 µg/mL | 0.50 µg/mL | 0.015 µg/mL | 0.03 µg/mL | 4 µg/mL | Levofloxacin MIC Against P. aeruginosa PAM1001 in Presence of Efflux Pump Inhibitor (EPI), Minimum Inhibitory Concentration (Table 2, EPI Conc. […]): 4 µg/mL; Levofloxacin MIC Against P. aeruginosa PAM1001 in Presence of Efflux Pump Inhibitor (EPI), Minimum Inhibitory Concentration (Table 3, EPI Conc. […]): 4 µg/mL; Levofloxacin MIC Against P. aeruginosa PAM1001 in Presence of Efflux Pump Inhibitor (EPI), Minimum Inhibitory Concentration (Table 4, EPI Conc. 0.625 μg/ml): 4 µg/mL; Levofloxacin MIC Against P. aeruginosa PAM1001 in Presence of Efflux Pump Inhibitor (EPI), Minimum Inhibitory Concentration (Table 4, EPI Conc. 5 μg/ml): 2 µg/mL; Levofloxacin MIC Against P. aeruginosa PAM1001 in Presence of Efflux Pump Inhibitor (EPI), Minimum Inhibitory Concentration (Table 4, EPI Conc. 10 μg/ml): 2 µg/mL; Levofloxacin MIC Against P. aeruginosa PAM1001 in Presence of Efflux Pump Inhibitor (EPI), Minimum Inhibitory Concentration (Table 4, EPI Conc. 40 μg/ml): 1 µg/mL; Levofloxacin MIC Against P. aeruginosa PAM1001 in Presence of Efflux Pump Inhibitor (EPI), Minimum Inhibitory Concentration (Table 4, EPI Conc. […]): 4 µg/mL; Levofloxacin MIC Against P. aeruginosa PAM1001 in Presence of Efflux Pump Inhibitor (EPI), Minimum Inhibitory Concentration [4]: 2 µg/mL |
| D-Ornithyl-β-[N-(isobutyl)]alanine quinoline-3-amide [Compound 40 (Table 3)] | 4 µg/mL | 4 µg/mL | 1 µg/mL | 0.06 µg/mL | 0.015 µg/mL | 4 µg/mL | 0.03 µg/mL | 4 µg/mL | 4 µg/mL | 1 µg/mL | 0.06 µg/mL | 0.06 µg/mL | 0.06 µg/mL | 4 µg/mL | 4 µg/mL | 0.06 µg/mL | 0.015 µg/mL | 0.015 µg/mL | 0.015 µg/mL | 4 µg/mL | Levofloxacin MIC Against P. aeruginosa PAM1001 in Presence of Efflux Pump Inhibitor (EPI), Minimum Inhibitory Concentration (Table 4, EPI Conc. 0.625 μg/ml): 4 µg/mL; Levofloxacin MIC Against P. aeruginosa PAM1001 in Presence of Efflux Pump Inhibitor (EPI), Minimum Inhibitory Concentration (Table 4, EPI Conc. 5 μg/ml): 1 µg/mL; Levofloxacin MIC Against P. aeruginosa PAM1001 in Presence of Efflux Pump Inhibitor (EPI), Minimum Inhibitory Concentration (Table 4, EPI Conc. 10 μg/ml): 0.25 µg/mL; Levofloxacin MIC Against P. aeruginosa PAM1001 in Presence of Efflux Pump Inhibitor (EPI), Minimum Inhibitory Concentration (Table 4, EPI Conc. 40 μg/ml): 0.06 µg/mL; Levofloxacin MIC Against P. aeruginosa PAM1001 in Presence of Efflux Pump Inhibitor (EPI), Minimum Inhibitory Concentration [4]: 0.06 µg/mL |
